Measurements published in US20080312200A1, “Medicament Comprising A Hormone Combination” (Grunenthal GmbH, priority 2006, published 2008).
pIC50, pKi: −log10 of the molar value.

Columns and labels:
GABAA receptors = experiment: Influence on the binding of [3H]muscimol to GABAA receptors (rat cerebral cortex membranes); conditions: 5 nM [3H]muscimol
Description: The following determinations of the influence of allopregnanolone, 3-α-OH-CMA or 3-β-OH-CMA on the binding of muscimol to GABAA receptors (rat) are based on the experimental methods published by Snodgrass, S. R. (Nature, 1979, vol. 273, p. 392-394). The corresponding disclosure is hereby introduced as a reference and is part of the disclosure of the present application.
Membrane preparations are produced from rat cerebral cortex material. The reference substance used is 5 nM of [^3H] muscimol; 10 μM of muscimol are used for determining nonspecific binding. The incubation period of the substances ([^3H]muscimol, allopregnanolone) on the receptor amounts in each case to 10 minutes at a temperature of approx. 4° C. The stock solution (5×10^−2 M) of allopregnanolone is in each case prediluted 1:10 in 75% strength DMSO and then further diluted 1:5 in 25% strength DMSO. The final concentration of allopregnanolone in the test is in each case 1×10^−10 M, 1×10^−9 M, 1×10^−8 M, 1×10^−7 M, 1×10^−6 M and 1×10^−5 M. After the above-stated incubation period of the substances, the incubation batches are filtered using standard methods and washed and the radioactivity of the filters is determined with a scintillation counter. Such standard methods are known to a person skilled in the art. The experiments are in each case carried out on duplicate batches.
The influence of 3-α-OH-CMA or 3-β-OH-CMA on the binding of muscimol to GABAA receptors (rat) is determined in a manner similar to the above-described method. 3-α-OH-CMA or 3-β-OH-CMA is used instead of allopregnanolone.

human androgen receptor = target: T1, human androgen receptor (Homo sapiens, UniProt P10275, T878A); experiment: Affinity for the human androgen receptor ([3H]methyltrienolone displacement, LNCaP cytosol); assay type: binding
T1 construct: The cytosolic fractions of LNCaP cells, which contain the human androgen receptor, are used; endogenous in cells; host or cells: LNCaP cells (cytosolic fraction)
T1 sequence (P10275 1-920 T878A): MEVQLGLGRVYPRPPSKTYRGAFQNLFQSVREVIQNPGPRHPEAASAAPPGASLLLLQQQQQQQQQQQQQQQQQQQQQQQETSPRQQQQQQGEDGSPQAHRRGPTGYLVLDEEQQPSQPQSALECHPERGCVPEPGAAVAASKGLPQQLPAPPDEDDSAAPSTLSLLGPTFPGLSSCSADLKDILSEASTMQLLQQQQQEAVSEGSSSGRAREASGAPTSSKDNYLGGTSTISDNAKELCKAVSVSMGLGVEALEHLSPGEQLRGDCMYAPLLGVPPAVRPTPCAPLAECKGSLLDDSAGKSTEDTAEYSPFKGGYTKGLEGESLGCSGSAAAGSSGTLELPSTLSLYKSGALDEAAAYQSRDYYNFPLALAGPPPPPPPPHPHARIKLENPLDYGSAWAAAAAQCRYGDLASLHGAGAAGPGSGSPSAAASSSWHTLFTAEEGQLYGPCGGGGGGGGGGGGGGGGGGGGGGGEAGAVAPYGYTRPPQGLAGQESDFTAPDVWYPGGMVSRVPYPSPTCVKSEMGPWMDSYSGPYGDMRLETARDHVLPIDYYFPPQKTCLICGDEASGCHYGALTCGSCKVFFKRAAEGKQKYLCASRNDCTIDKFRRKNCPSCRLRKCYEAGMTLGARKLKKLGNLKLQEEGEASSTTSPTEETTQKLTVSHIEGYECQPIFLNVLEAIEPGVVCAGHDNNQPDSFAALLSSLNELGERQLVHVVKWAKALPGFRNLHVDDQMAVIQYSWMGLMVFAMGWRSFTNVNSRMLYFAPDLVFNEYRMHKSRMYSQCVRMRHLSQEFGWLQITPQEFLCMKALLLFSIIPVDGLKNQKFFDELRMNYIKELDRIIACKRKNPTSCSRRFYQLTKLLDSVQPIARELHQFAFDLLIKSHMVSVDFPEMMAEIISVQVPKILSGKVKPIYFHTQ
Description: (§1) The following determination of the affinity of 3-α-OH-CMA or 3-β-OH-CMA for the human androgen receptor is based on the experimental methods published by Zava et al. (Endocrinology, 1979, vol. 104, pp. 1007-1012). The corresponding disclosure is hereby introduced as a reference and is part of the disclosure of the present application.
The cytosolic fractions of LNCaP cells, which contain the human androgen receptor, are used. The reference substance used is 0.5 nM of [^3H]methyltrienolone; 1 μM of mibolerone is used for determining nonspecific binding. The incubation period of the substances ([^3H]methyltrienolone, 3-α-OH-CMA or 3-β-OH-CMA) on the receptor amounts in each case to 24 hours at a temperature of approx. 4° C. The stock solutions, the dilution series of 3-α-OH-CMA or 3-β-OH-CMA, the washing steps, the determination of radioactivity, and the methods for calculating the particular IC50 and Ki values match the experimental protocol described in point 2).

[1] = target: T2, human progesterone receptor (Homo sapiens, UniProt P06401); experiment: Affinity for the human progesterone receptor ([3H]R 5020 displacement, MCF-7 cytosol); assay type: binding; conditions: for pIC50: 2 nM [3H]R 5020, MCF-7 cytosol, 20 hours, approx. 4° C.; for pKi: Cheng-Prusoff from IC50
T2 construct: The cytosolic fractions of MCF-7 cells, which contain the human progesterone receptor, are used; endogenous in cells; host or cells: MCF-7 cells (cytosolic fraction)
T2 sequence (P06401 1-933): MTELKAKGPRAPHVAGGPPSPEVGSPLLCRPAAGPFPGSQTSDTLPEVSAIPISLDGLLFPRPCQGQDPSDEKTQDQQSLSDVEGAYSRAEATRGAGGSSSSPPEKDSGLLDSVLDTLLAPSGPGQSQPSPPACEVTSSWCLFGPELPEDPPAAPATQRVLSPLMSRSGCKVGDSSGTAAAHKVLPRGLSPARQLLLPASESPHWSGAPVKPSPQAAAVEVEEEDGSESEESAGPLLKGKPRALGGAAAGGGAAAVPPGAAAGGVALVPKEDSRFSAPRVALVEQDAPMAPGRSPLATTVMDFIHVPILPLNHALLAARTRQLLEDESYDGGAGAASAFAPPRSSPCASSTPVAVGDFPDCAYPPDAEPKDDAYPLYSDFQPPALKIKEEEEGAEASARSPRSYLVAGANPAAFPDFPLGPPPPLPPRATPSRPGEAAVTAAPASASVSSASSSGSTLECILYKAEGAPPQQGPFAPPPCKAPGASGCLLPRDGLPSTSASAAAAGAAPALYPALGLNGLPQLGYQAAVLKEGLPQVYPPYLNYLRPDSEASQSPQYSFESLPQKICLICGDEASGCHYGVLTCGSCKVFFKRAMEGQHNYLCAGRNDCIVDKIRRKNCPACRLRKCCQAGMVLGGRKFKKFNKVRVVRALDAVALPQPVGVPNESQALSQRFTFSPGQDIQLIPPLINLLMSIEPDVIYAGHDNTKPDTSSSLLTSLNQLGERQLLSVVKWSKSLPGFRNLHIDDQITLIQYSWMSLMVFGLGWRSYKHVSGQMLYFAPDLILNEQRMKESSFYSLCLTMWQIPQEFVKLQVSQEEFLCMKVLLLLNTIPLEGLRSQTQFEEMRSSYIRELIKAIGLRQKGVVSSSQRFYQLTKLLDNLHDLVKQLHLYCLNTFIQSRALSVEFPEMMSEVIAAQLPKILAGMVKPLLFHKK
Description: as §1, with “progesterone” for “androgen”, “Eckert” for “Zava”, “(Cancer Research, 1982,” for “(Endocrinology, 1979,”, “42,” for “104,”, “139-144).” for “1007-1012).”
The cytosolic fractions of MCF-7 cells, which contain the human progesterone receptor, are used. The reference substance used is 2 nM of [^3H] R 5020; 1 μM of R 5020 is used for determining nonspecific binding. The incubation period of the substances ([^3H] R 5020, 3-α-OH-CMA or 3-β-OH-CMA) on the receptor amounts in each case to 20 hours at a temperature of approx. 4° C. Stock solutions (5×10^−2 M) of 3-α-OH-CMA or 3-β-OH-CMA are in each case prediluted 1:10 in 75% strength DMSO and then further diluted 1:5 in 25% strength DMSO. The final concentrations of 3-α-OH-CMA or 3-β-OH-CMA in the test are 3×10^−10 M, 3×10^−9 M, 1×10^−8 M, 3×10^−8 M, 1×10^−7 M, 3×10^−7 M, 1×10^−6 M and 1×10^−5 M. After the above-stated incubation period of the substances, the incubation batches are filtered using standard methods and washed and the radioactivity of the filters is determined with a scintillation counter. Such standard methods are known to a person skilled in the art. The experiments are in each case carried out on duplicate batches.
The corresponding IC50 values are calculated by nonlinear regression analysis of the displacement curves using the Hill curve fitting formula. A person skilled in the art is aware of such a calculation procedure.
The corresponding Ki values (inhibition constants) are determined using the Cheng-Prusoff equation (Ki=IC50/(1+(L/KD)), where L denotes the concentration of the radioligand in the test and KD the affinity of the radioligand for the receptor).

Structure (SMILES) | increase of binding of radioactively labelled muscimol (GABAA receptors; 1 μM test substance, 10 min, approx. 4° C.) [%] | pIC50 (human androgen receptor) | pKi (human androgen receptor) | increase of binding of radioactively labelled muscimol (GABAA receptors; 0.001 μM test substance) [%] | pIC50 [1] | pKi [1] | increase of binding of radioactively labelled muscimol (GABAA receptors; 0.1 μM test substance) [%]
CC(=O)[C@H]1CC[C@H]2[C@@H]3CC[C@H]4C[C@H](O)CC[C@]4(C)[C@H]3CC[C@]12C [allopregnanolone, reference compound] | 38 |  |  |  |  |  | 
CC(=O)O[C@]1(C(C)=O)CC[C@H]2[C@@H]3C=C(Cl)C4=C[C@H](O)CC[C@]4(C)[C@H]3CC[C@@]21C [3-α-OH-CMA, 3α-hydroxy-6-chloro-17α-acetoxy-4,6-pregnadien-20-one] |  | 7.00 | 7.08 | 12 | 7.41 | 7.89 | 
CC(=O)O[C@]1(C(C)=O)CC[C@H]2[C@@H]3C=C(Cl)C4=C[C@@H](O)CC[C@]4(C)[C@H]3CC[C@@]21C [3-β-OH-CMA, 3β-hydroxy-6-chloro-17α-acetoxy-4,6-pregnadien-20-one] |  | 7.60 | 7.70 |  | 7.74 | 8.22 | 31
